# Measurements from ChEMBL document CHEMBL1153553, “Pharmacodynamics of RWJ-54428 against Staphylococcus aureus, Streptococcus pneumoniae, and Enterococcus faecalis in a neutropenic mouse thigh infection model” (Antimicrob Agents Chemother, 2008).
# Experiments:
# [1] = Cmax in neutropenic Swiss mouse thigh infection model at 20 mg/kg, ip; format: ADME, organism-based; set-up: dose 20 mg/kg, route intraperitoneal; conditions: in vivo
# [2] = AUC in neutropenic Swiss mouse thigh infection model at 100 mg/kg, ip; format: ADME, organism-based; set-up: dose 100 mg/kg, route intraperitoneal; conditions: in vivo
# [3] = Clearance with respect to bioavailability in neutropenic Swiss mouse thigh infection model at 20 mg/kg, ip; format: ADME, organism-based; conditions: in vivo
# Enterococcus faecalis [4] = test: Antibacterial activity against Enterococcus faecalis EFS 007 after 24 hrs by broth microdilution method; format: functional; conditions: EFS 007, 24 h
# Staphylococcus aureus [5] = test: Antibacterial activity against methicillin-resistant Staphylococcus aureus 076 after 24 hrs by broth microdilution method; format: functional; conditions: Staphylococcus aureus, 076, 24 h
# [6] = fT>MIC in neutropenic Swiss mouse thigh model infected with methicillin-resistant Staphylococcus aureus COL assessed as maximal effect on bacterial count reduction at 1.5 to 200 mg/kg, ip administered 2 hrs postinfection measured after 24 hrs; format: functional; conditions: dose mg/kg 1.5-200; route intraperitoneal
# [7] = fT>MIC in neutropenic Swiss mouse thigh model infected with methicillin-resistant Staphylococcus aureus COL assessed as 1 log reduction of bacterial count at 1.5 to 200 mg/kg, ip administered 2 hrs postinfection measured after 24 hrs; format: functional; conditions: dose mg/kg 1.5-200; route intraperitoneal
# [8] = fT>MIC in neutropenic Swiss mouse thigh model infected with methicillin-resistant Staphylococcus aureus COL assessed as static effect on bacterial count reduction at 1.5 to 200 mg/kg, ip administered 2 hrs postinfection measured after 24 hrs; format: functional; conditions: dose mg/kg 1.5-200; route intraperitoneal
# Enterococcus faecalis [9] = test: Antibacterial activity against Enterococcus faecalis infected in neutropenic Swiss mouse thigh model assessed as maximal bactericidal effect per thigh at 1.5 to 200 mg/kg, ip administered 2 hrs of postinfection measured after 24 hrs; format: functional; conditions: dose mg/kg 1.5-200; route intraperitoneal
# [10] = fT>MIC in neutropenic Swiss mouse thigh model infected with penicillin-resistant Streptococcus pneumoniae SP 019 assessed as static effect on bacterial count reduction at 1.5 to 200 mg/kg, ip administered 2 hrs postinfection measured after 24 hrs; format: functional; conditions: dose mg/kg 1.5-200; route intraperitoneal
# [11] = fT>MIC in neutropenic Swiss mouse thigh model infected with Streptococcus pneumoniae ATCC 49619 assessed as 2 log reduction of bacterial count at 1.5 to 200 mg/kg, ip administered 2 hrs postinfection measured after 24 hrs; format: functional; conditions: dose mg/kg 1.5-200; route intraperitoneal
# Staphylococcus aureus [12] = test: Antibacterial activity against methicillin-resistant Staphylococcus aureus isolate 604 after 24 hrs by broth microdilution method; format: functional; conditions: isolate 604, 24 h
# [13] = fT>MIC in neutropenic Swiss mouse thigh model infected with penicillin-resistant Streptococcus pneumoniae SP 019 assessed as 1 log reduction of bacterial count at 1.5 to 200 mg/kg, ip administered 2 hrs postinfection measured after 24 hrs; format: functional; conditions: dose mg/kg 1.5-200; route intraperitoneal
# [14] = fT>MIC in neutropenic Swiss mouse thigh model infected with methicillin-resistant Staphylococcus aureus isolate 602 assessed as 1 log reduction of bacterial count at 1.5 to 200 mg/kg, ip administered 2 hrs postinfection measured after 24 hrs; format: functional; conditions: dose mg/kg 1.5-200; route intraperitoneal
# [15] = fT>MIC in neutropenic Swiss mouse thigh model infected with methicillin-resistant Staphylococcus aureus isolate 609 assessed as static effect on bacterial count reduction at 1.5 to 200 mg/kg, ip administered 2 hrs postinfection measured after 24 hrs; format: functional; conditions: dose mg/kg 1.5-200; route intraperitoneal
# [16] = fT>MIC in neutropenic Swiss mouse thigh model infected with methicillin-resistant Staphylococcus aureus isolate 609 assessed as maximal effect on bacterial count reduction at 1.5 to 200 mg/kg, ip administered 2 hrs postinfection measured after 24 hrs; format: functional; conditions: dose mg/kg 1.5-200; route intraperitoneal
# Staphylococcus aureus [17] = test: Antibacterial activity against methicillin-resistant Staphylococcus aureus isolate 602 after 24 hrs by broth microdilution method; format: functional; conditions: isolate 602, 24 h
# Staphylococcus aureus [18] = test: Antibacterial activity against methicillin-resistant Staphylococcus aureus isolate 609 after 24 hrs by broth microdilution method; format: functional; conditions: isolate 609, 24 h
# [19] = fT>MIC in neutropenic Swiss mouse thigh model infected with Streptococcus pneumoniae ATCC 49619 assessed as 1 log reduction of bacterial count at 1.5 to 200 mg/kg, ip administered 2 hrs postinfection measured after 24 hrs; format: functional; conditions: dose mg/kg 1.5-200; route intraperitoneal
# [20] = Half life in neutropenic Swiss mouse thigh infection model at 20 mg/kg, ip; format: ADME, organism-based; set-up: dose 20 mg/kg, route intraperitoneal; conditions: in vivo
# Enterococcus faecalis [21] = test: Antibacterial activity against Enterococcus faecalis ATCC 29212 after 24 hrs by broth microdilution method; format: functional; conditions: ATCC 29212, 24 h
# [22] = fT>MIC in neutropenic Swiss mouse thigh model infected with Enterococcus faecalis ATCC 29212 assessed as static effect on bacterial count reduction at 1.5 to 200 mg/kg, ip administered 2 hrs postinfection measured after 24 hrs; format: functional; conditions: dose mg/kg 1.5-200; route intraperitoneal
# [23] = Protein binding in neutropenic Swiss mouse thigh infection model serum at 100 mg/kg, ip by ultrafiltration; format: ADME, organism-based; set-up: dose 100 mg/kg, route intraperitoneal; conditions: read-out: PB (converted)
# [24] = fT>MIC in neutropenic Swiss mouse thigh model infected with methicillin-resistant Staphylococcus aureus isolate 604 assessed as static effect on bacterial count reduction at 1.5 to 200 mg/kg, ip administered 2 hrs postinfection measured after 24 hrs; format: functional; conditions: dose mg/kg 1.5-200; route intraperitoneal
# [25] = Tmax in neutropenic Swiss mouse thigh infection model at 100 mg/kg, ip; format: ADME, organism-based; set-up: dose 100 mg/kg, route intraperitoneal; conditions: in vivo
# [26] = fT>MIC in neutropenic Swiss mouse thigh model infected with methicillin-resistant Staphylococcus aureus isolate 602 assessed as maximal effect on bacterial count reduction at 1.5 to 200 mg/kg, ip administered 2 hrs postinfection measured after 24 hrs; format: functional; conditions: dose mg/kg 1.5-200; route intraperitoneal
# Streptococcus pneumoniae [27] = test: Antibacterial activity against penicillin-resistant Streptococcus pneumoniae SP 019 after 24 hrs by broth microdilution method; format: functional; conditions: SP 019, 24 h
# [28] = fT>MIC in neutropenic Swiss mouse thigh model infected with Enterococcus faecalis ATCC 29212 assessed as maximal effect on bacterial count reduction at 1.5 to 200 mg/kg, ip administered 2 hrs postinfection measured after 24 hrs; format: functional; conditions: dose mg/kg 1.5-200; route intraperitoneal
# [29] = fT>MIC in neutropenic Swiss mouse thigh model infected with Enterococcus faecalis EFS 007 assessed as maximal effect on bacterial count reduction at 1.5 to 200 mg/kg, ip administered 2 hrs postinfection measured after 24 hrs; format: functional; conditions: dose mg/kg 1.5-200; route intraperitoneal
# Streptococcus pneumoniae [30] = test: Antibacterial activity against Streptococcus pneumoniae infected in neutropenic Swiss mouse thigh model assessed as maximal bactericidal effect per thigh at 1.5 to 200 mg/kg, ip administered 2 hrs of postinfection measured after 24 hrs; format: functional; conditions: dose mg/kg 1.5-200; route intraperitoneal
# [31] = fT>MIC in neutropenic Swiss mouse thigh model infected with Enterococcus faecalis ATCC 29212 assessed as 1 log reduction of bacterial count at 1.5 to 200 mg/kg, ip administered 2 hrs postinfection measured after 24 hrs; format: functional; conditions: dose mg/kg 1.5-200; route intraperitoneal
# [32] = Cmax in neutropenic Swiss mouse thigh infection model at 100 mg/kg, ip; format: ADME, organism-based; set-up: dose 100 mg/kg, route intraperitoneal; conditions: in vivo
# [33] = AUC in neutropenic Swiss mouse thigh infection model at 20 mg/kg, ip; format: ADME, organism-based; set-up: dose 20 mg/kg, route intraperitoneal; conditions: in vivo
# [34] = fT>MIC in neutropenic Swiss mouse thigh model infected with Enterococcus faecalis EFS 007 assessed as static effect on bacterial count reduction at 1.5 to 200 mg/kg, ip administered 2 hrs postinfection measured after 24 hrs; format: functional; conditions: dose mg/kg 1.5-200; route intraperitoneal
# [35] = fT>MIC in neutropenic Swiss mouse thigh model infected with Enterococcus faecalis EFS 007 assessed as 1 log reduction of bacterial count at 1.5 to 200 mg/kg, ip administered 2 hrs postinfection measured after 24 hrs; format: functional; conditions: dose mg/kg 1.5-200; route intraperitoneal
# [36] = Half life in neutropenic Swiss mouse thigh infection model at 100 mg/kg, ip; format: ADME, organism-based; set-up: dose 100 mg/kg, route intraperitoneal; conditions: in vivo
# [37] = Apparent volume of distribution with respect to bioavailability in neutropenic Swiss mouse thigh infection model at 20 mg/kg, ip; format: ADME, organism-based; conditions: in vivo, read-out: Vc/F
# [38] = Protein binding in neutropenic Swiss mouse thigh infection model serum at 20 mg/kg, ip by ultrafiltration; format: ADME, organism-based; set-up: dose 20 mg/kg, route intraperitoneal; conditions: read-out: PB (converted)
# Staphylococcus aureus [39] = test: Antibacterial activity against methicillin-resistant Staphylococcus aureus COL after 24 hrs by broth microdilution method; format: functional
# Staphylococcus aureus [40] = test: Antibacterial activity against methicillin-resistant Staphylococcus aureus infected in neutropenic Swiss mouse thigh model assessed as maximal bactericidal effect per thigh at 1.5 to 200 mg/kg, ip administered 2 hrs of postinfection measured after 24 hrs; format: functional; conditions: dose mg/kg 1.5-200; route intraperitoneal
# [41] = fT>MIC in neutropenic Swiss mouse thigh model infected with Streptococcus pneumoniae ATCC 49619 assessed as maximal effect on bacterial count reduction at 1.5 to 200 mg/kg, ip administered 2 hrs postinfection measured after 24 hrs; format: functional; conditions: dose mg/kg 1.5-200; route intraperitoneal
# [42] = Tmax in neutropenic Swiss mouse thigh infection model at 20 mg/kg, ip; format: ADME, organism-based; set-up: dose 20 mg/kg, route intraperitoneal; conditions: in vivo
# [43] = Clearance with respect to bioavailability in neutropenic Swiss mouse thigh infection model at 100 mg/kg, ip; format: ADME, organism-based; conditions: in vivo
# [44] = fT>MIC in neutropenic Swiss mouse thigh model infected with methicillin-resistant Staphylococcus aureus 076 assessed as static effect on bacterial count reduction at 1.5 to 200 mg/kg, ip administered 2 hrs postinfection measured after 24 hrs; format: functional; conditions: dose mg/kg 1.5-200; route intraperitoneal
# Streptococcus pneumoniae [45] = test: Antibacterial activity against Streptococcus pneumoniae ATCC 49619 after 24 hrs by broth microdilution method; format: functional; conditions: ATCC 49619, 24 h
# [46] = Apparent volume of distribution with respect to bioavailability in neutropenic Swiss mouse thigh infection model at 100 mg/kg, ip; format: ADME, organism-based; conditions: in vivo, read-out: Vc/F
# [47] = fT>MIC in neutropenic Swiss mouse thigh model infected with methicillin-resistant Staphylococcus aureus 076 assessed as maximal effect on bacterial count reduction at 1.5 to 200 mg/kg, ip administered 2 hrs postinfection measured after 24 hrs; format: functional; conditions: dose mg/kg 1.5-200; route intraperitoneal
# [48] = fT>MIC in neutropenic Swiss mouse thigh model infected with methicillin-resistant Staphylococcus aureus isolate 602 assessed as static effect on bacterial count reduction at 1.5 to 200 mg/kg, ip administered 2 hrs postinfection measured after 24 hrs; format: functional; conditions: dose mg/kg 1.5-200; route intraperitoneal
# [49] = fT>MIC in neutropenic Swiss mouse thigh model infected with Streptococcus pneumoniae ATCC 49619 assessed as static effect on bacterial count reduction at 1.5 to 200 mg/kg, ip administered 2 hrs postinfection measured after 24 hrs; format: functional; conditions: dose mg/kg 1.5-200; route intraperitoneal
compound,measurement,setting,value
CS(=O)(=O)O.NCCSCc1cnccc1SC1=C(C(=O)O)N2C(=O)[C@@H](NC(=O)/C(=N\O)c3nc(N)sc3Cl)[C@H]2SC1,Cmax,[1],47.3 µg/mL
same,AUC,[2],108000 ng·h/mL
same,CL/F,[3],20 mL/min/kg
same,MIC,Enterococcus faecalis [4],0.125 µg/mL
same,MIC,Staphylococcus aureus [5],1 µg/mL
same,fT>MIC,[6],36%
same,fT>MIC,[7],20%
same,fT>MIC,[8],14%
same,log10cfu,Enterococcus faecalis [9],-1.65
same,fT>MIC,[10],16%
same,fT>MIC,[11],23%
same,MIC,Staphylococcus aureus [12],0.5 µg/mL
same,fT>MIC,[13],22%
same,fT>MIC,[14],20%
same,fT>MIC,[15],16%
same,fT>MIC,[16],22%
same,MIC,Staphylococcus aureus [17],0.5 µg/mL
same,MIC,Staphylococcus aureus [18],0.5 µg/mL
same,fT>MIC,[19],21%
same,half-life,[20],10.2 min
same,MIC,Enterococcus faecalis [21],0.06 µg/mL
same,fT>MIC,[22],30%
same,fraction unbound,[23],0.4
same,fT>MIC,[24],20%
same,Tmax,[25],15.6 min
same,fT>MIC,[26],24%
same,MIC,Streptococcus pneumoniae [27],0.5 µg/mL
same,fT>MIC,[28],60%
same,fT>MIC,[29],60%
same,log10cfu,Streptococcus pneumoniae [30],-3.75
same,fT>MIC,[31],48%
same,Cmax,[32],133 µg/mL
same,AUC,[33],16600 ng·h/mL
same,fT>MIC,[34],46%
same,fT>MIC,[35],56%
same,half-life,[36],19.8 min
same,Vd/F,[37],0.3 L/kg
same,fraction unbound,[38],0.4
same,MIC,Staphylococcus aureus [39],1 µg/mL
same,log10cfu,Staphylococcus aureus [40],-2.83
same,fT>MIC,[41],28%
same,Tmax,[42],5.4 min
same,CL/F,[43],15 mL/min/kg
same,fT>MIC,[44],16%
same,MIC,Streptococcus pneumoniae [45],0.03 µg/mL
same,Vd/F,[46],0.44 L/kg
same,fT>MIC,[47],32%
same,fT>MIC,[48],17%
same,fT>MIC,[49],18%
